Measured values: PMC11271341 (Clinical Pharmacokinetics, 2024)
Where two headings read alike, the source gives them in different places.

Key:
[1] = tested on: OCT2/MATE1; details: in vitro; pazopanib as OCT1/MATE1 inhibitor (so in the source); cited from earlier work
[2] = Metformin trough plasma concentration; assay type: in vivo, human; details: n = 18
[3] = exceeds the glomerular filtration rate; cited from earlier work
[4] = tested on: organic cation transporter 2 (OCT2); details: in vitro studies; cited from earlier work
[5] = tested on: multidrug and toxin extrusion protein 1 (MATE1); details: in vitro studies; cited from earlier work
[6] = Trifluridine plasma pharmacokinetics, three-phase crossover study in patients; assay type: in vivo; details: human, oral, median Tmax, range over the three phases, phases A, B and C
[7] = cited from earlier work

## N.N.[Cl][Pt][Cl] [cisplatin]
[1]
  change in cisplatin exposure when combined with pazopanib: significant in vitro increase

## CN(C)C(=N)N=C(N)N [metformin]
[2]; metformin 500 mg b.i.d. in combination with trifluridine/tipiracil
  geometric mean Ctrough: 240 ng/mL
[2]; metformin monotherapy (day 14)
  geometric mean Ctrough: 150 ng/mL

## N=C1CCCN1Cc1nc(O)nc(O)c1Cl [tipiracil]
[3]
  renal clearance: ~ 300 mL/min
[4]
  interaction with OCT2: substrate and inhibitor
[5]
  interaction with MATE1: substrate and inhibitor

## O=c1[nH]c(=O)n([C@H]2C[C@H](O)[C@@H](CO)O2)cc1C(F)(F)F [trifluridine]
[6]
  Tmax: 46.8 to 60 min
[7]; mild renal impairment (creatinine clearance between 60 and 89 mL/min)
  increase of area under the curve vs normal renal function (≥ 90 mL/min): 31%
[7]; moderate renal impairment (between 30 and 59 mL/min)
  increase of area under the curve vs normal renal function (≥ 90 mL/min): 43%
